Experimental data from patent US20260015358A1, “BICYCLIC DERIVATIVES, COMPOSITIONS AND USES THEREOF” (Danatlas Pharmaceuticals Co., Ltd., priority 2023, published 2026).

What was measured:
[1] = target: T1, WRN [UniPro: Q14191 (WRN_HUMAN), N500-C946] (Homo sapiens (Human), UniProt Q14191); assay: WRN ATPase assay (ADP-Glo); assay type: biochemical; conditions: WRN enzymatic activity assay
Protocol: WRN ATPase assay was initiated to evaluate potential inhibitory effect of compounds for ATP hydrolysis activity of WRN protein. WRN [UniPro: Q14191 (WRN_HUMAN), N500-C946] was expressed and purified in insect system and stored at −80° C. in aliquots. […] ADP quantity produced from ATP hydrolysis by WRN catalytic reaction was measured using a commercially available ADP-Glo Assay (ADP-Glo™ Kinase Assay from Promega, 10000 assays, #V9102). […] Compounds dissolved in DMSO (Sigma, D8418) were plated into a 96-well intermediate plate (BioFil, VWP-032-096) for 3-fold serial titration for 10 points using DMSO, and well-to-well transfer the titrated compounds into another 96-well intermediate plate including assay buffer in advance. Shake the 96-well intermediate plate at 600 rpm for 10 min to fully mix. Specifically, a 4× working mixture of WRN was diluted to a concentration of 8 nM in assay buffer. […] After centrifuging at 1000 rpm and shaking at 500 rpm, the assay plate was pre-incubated for 30 min. Then, 5 μL 2×FORKF DNA and ATP working mixture was dispensed into assay plate. Plate was sealed, centrifuged and incubated for an additional 40 min. at 37° C. The reaction was stopped with the addition of 10 μL of the first ADP-Glo reagent and incubated for 40 min. to remove the excess amount of ATP. Afterwards, 20 μL of ATP detection reagent was added and incubated for 30 min. before reading. Luminescence output was recorded using BMG CLARIO star plus reader. Each concentration of compound was tested in duplicates in the assay plate. Average luminescence signal of high control (Wells with 1% DMSO) was calculated as High Control (HC). Average luminescence signal of low control (Wells with no WRN protein) was calculated as Low control (LC).
IC50 values were determined by fitting the data to the standard 4 parameters with Hill Slope using GraphPad Prism software.

[2] = target: T1, WRN [UniPro: Q14191 (WRN_HUMAN), N500-C946]; assay: WRN unwinding assay (FORKF DNA, fluorescence); assay type: biochemical; conditions: Table 14

T1 sequence (Q14191 500-946): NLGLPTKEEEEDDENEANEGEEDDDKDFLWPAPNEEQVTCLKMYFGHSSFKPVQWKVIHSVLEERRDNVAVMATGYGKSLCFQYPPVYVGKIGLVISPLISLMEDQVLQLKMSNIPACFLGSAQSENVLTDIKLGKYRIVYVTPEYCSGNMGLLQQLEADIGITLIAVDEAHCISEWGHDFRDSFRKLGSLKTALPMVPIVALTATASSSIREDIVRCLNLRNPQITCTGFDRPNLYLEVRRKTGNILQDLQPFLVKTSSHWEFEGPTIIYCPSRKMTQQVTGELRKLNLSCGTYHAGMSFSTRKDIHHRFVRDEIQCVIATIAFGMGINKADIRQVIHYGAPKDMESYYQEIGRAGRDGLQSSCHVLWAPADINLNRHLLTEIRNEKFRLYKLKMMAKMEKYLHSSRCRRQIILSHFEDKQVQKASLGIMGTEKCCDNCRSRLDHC

| Compound | IC50 [1] [nM] | IC50 [2] [nM] |
| --- | --- | --- |
| CCc1c(N2CCN(C(=O)c3ncsc3N)CC2)c(=O)n2nc(C3=CCOCC3)nc2n1CC(=O)Nc1ccc(C(F)(F)F)cc1Cl [Example 32, 2-(6-(4-(5-Aminothiazole-4-carbonyl)piperazin-1-yl)-2-(3,6-dihydro-2H-pyran-4-yl)-5-ethyl-7-oxo-[1,2,4]triazolo[1,5-a]pyrimidin-4(7H)-yl)-N-(2-chloro-4-(trifluoromethyl)phenyl)acetamide] | 100 to 1000 | < 100 |
| CCC(=O)N(C(=O)Cn1c(CC)c(N2CCN(S(N)(=O)=O)CC2)c(=O)n2nc(C3=CCOCC3)nc12)c1ccc(C(F)(F)F)cc1Cl [Example 35, N-(2-Chloro-4-(trifluoromethyl)phenyl)-N-(2-(2-(3,6-dihydro-2H-pyran-4-yl)-5-ethyl-7-oxo-6-(4-sulfamoylpiperazin-1-yl)-[1,2,4]triazolo[1,5-a]pyrimidin-4(7H)-yl)acetyl)propionamide] | 100 to 1000 | 100 to 1000 |
| CCc1c(N2CCN(C(=O)CNC(=O)OC(C)(C)C)CC2)c(=O)n2nc(C3=CCOCC3)nc2n1CC(=O)Nc1ccc(C(F)(F)F)cc1Cl [Example 37, tert-Butyl (2-(4-(4-(2-((2-chloro-4-(trifluoromethyl)phenyl)amino)-2-oxoethyl)-2-(3,6-dihydro-2H-pyran-4-yl)-5-ethyl-7-oxo-4,7-dihydro-[1,2,4]triazolo[1,5-a]pyrimidin-6-yl)piperazin-1-yl)-2-oxoethyl)carbamate] | < 100 | 100 to 1000 |
| CCNC(=O)NCC(=O)N1CCN(c2c(CC)n(CC(=O)Nc3ccc(C(F)(F)F)cc3Cl)c3nc(C4=CCOCC4)nn3c2=O)CC1 [Example 41, N-(2-Chloro-4-(trifluoromethyl)phenyl)-2-(2-(3,6-dihydro-2H-pyran-4-yl)-5-ethyl-6-(4-((ethylcarbamoyl)glycyl)piperazin-1-yl)-7-oxo-[1,2,4]triazolo[1,5-a]pyrimidin-4(7H)-yl)acetamide] | < 100 | < 100 |
| CCc1c(N2CCN(C(=O)c3cnc4[nH]ccc4c3O)CC2)c(=O)n2nc(C3=CCOCC3)nc2n1CC(=O)Nc1ccc(C(F)(F)F)cc1Cl [Example 42, N-(2-Chloro-4-(trifluoromethyl)phenyl)-2-(2-(3,6-dihydro-2H-pyran-4-yl)-5-ethyl-6-(4-(4-hydroxy-1H-pyrrolo[2,3-b]pyridine-5-carbonyl)piperazin-1-yl)-7-oxo-[1,2,4]triazolo[1,5-a]pyrimidin-4(7H)-yl)acetamide] | < 100 | < 100 |
| CCc1c(N2CCN(C(=O)c3c[nH]c(=O)n(C)c3=O)CC2)c(=O)n2nc(C3=CCOCC3)nc2n1CC(=O)Nc1ccc(C(F)(F)F)cc1Cl [Example 43, N-(2-Chloro-4-(trifluoromethyl)phenyl)-2-(2-(3,6-dihydro-2H-pyran-4-yl)-5-ethyl-6-(4-(3-methyl-2,4-dioxo-1,2,3,4-tetrahydropyrimidine-5-carbonyl)piperazin-1-yl)-7-oxo-[1,2,4]triazolo[1,5-a]pyrimidin-4(7H)-yl)acetamide] | 100 to 1000 | < 100 |
| CCc1c(N2CCN(C(=O)c3ncnc4c(Cl)c[nH]c34)CC2)c(=O)n2nc(C3=CCOCC3)nc2n1CC(=O)Nc1ccc(C(F)(F)F)cc1Cl [Example 44, N-(2-Chloro-4-(trifluoromethyl)phenyl)-2-(6-(4-(7-chloro-5H-pyrrolo[3,2-d]pyrimidine-4-carbonyl)piperazin-1-yl)-2-(3,6-dihydro-2H-pyran-4-yl)-5-ethyl-7-oxo-[1,2,4]triazolo[1,5-a]pyrimidin-4(7H)-yl)acetamide] | 100 to 1000 | 100 to 1000 |
| CCc1c(N2CCN(C(=O)c3cnc4ccsc4c3O)CC2)c(=O)n2nc(C3=CCOCC3)nc2n1CC(=O)Nc1ccc(C(F)(F)F)cc1Cl [Example 45, N-(2-Chloro-4-(trifluoromethyl)phenyl)-2-(2-(3,6-dihydro-2H-pyran-4-yl)-5-ethyl-6-(4-(7-hydroxythieno[3,2-b]pyridine-6-carbonyl)piperazin-1-yl)-7-oxo-[1,2,4]triazolo[1,5-a]pyrimidin-4(7H)-yl)acetamide] | < 100 | < 100 |
| CCc1c(N2CCN(C(=O)c3ncc(F)cc3N)CC2)c(=O)n2nc(C3=CCOCC3)nc2n1CC(=O)Nc1ccc(C(F)(F)F)cc1Cl [Example 46, 2-(6-(4-(3-Amino-5-fluoropicolinoyl)piperazin-1-yl)-2-(3,6-dihydro-2H-pyran-4-yl)-5-ethyl-7-oxo-[1,2,4]triazolo[1,5-a]pyrimidin-4(7H)-yl)-N-(2-chloro-4-(trifluoromethyl)phenyl)acetamide] | 100 to 1000 | < 100 |
| CCc1c(N2CCN(C(=O)c3n[nH]c(=O)cc3O)CC2)c(=O)n2nc(C3=CCOCC3)nc2n1CC(=O)Nc1ccc(C(F)(F)F)cc1Cl [Example 48, N-(2-Chloro-4-(trifluoromethyl)phenyl)-2-(2-(3,6-dihydro-2H-pyran-4-yl)-5-ethyl-6-(4-(4-hydroxy-6-oxo-1,6-dihydropyridazine-3-carbonyl)piperazin-1-yl)-7-oxo-[1,2,4]triazolo[1,5-a]pyrimidin-4(7H)-yl)acetamide] | < 100 | < 100 |
| CCc1c(N2CCN(C(=O)c3cnc4scnc4c3O)CC2)c(=O)n2nc(C3=CCOCC3)nc2n1CC(=O)Nc1ccc(C(F)(F)F)cc1Cl [Example 49, N-(2-Chloro-4-(trifluoromethyl)phenyl)-2-(2-(3,6-dihydro-2H-pyran-4-yl)-5-ethyl-6-(4-(7-hydroxythiazolo[5,4-b]pyridine-6-carbonyl)piperazin-1-yl)-7-oxo-[1,2,4]triazolo[1,5-a]pyrimidin-4(7H)-yl)acetamide] | < 100 | < 100 |
| CCc1c(N2CCN(C(=O)c3c[nH]c(=O)[nH]c3=O)CC2)c(=O)n2nc(C3=CCOCC3)nc2n1CC(=O)Nc1ccc(C(F)(F)F)cc1Cl [Example 50, N-(2-Chloro-4-(trifluoromethyl)phenyl)-2-(2-(3,6-dihydro-2H-pyran-4-yl)-6-(4-(2,4-dioxo-1,2,3,4-tetrahydropyrimidine-5-carbonyl)piperazin-1-yl)-5-ethyl-7-oxo-[1,2,4]triazolo[1,5-a]pyrimidin-4(7H)-yl)acetamide] | < 100 | 100 to 1000 |
| CCOC(=O)c1cnc2oc(C(=O)N3CCN(c4c(CC)n(CC(=O)Nc5ccc(C(F)(F)F)cc5Cl)c5nc(C6=CCOCC6)nn5c4=O)CC3)cc2c1O [Example 53, Ethyl 2-(4-(4-(2-((2-chloro-4-(trifluoromethyl)phenyl)amino)-2-oxoethyl)-2-(3,6-dihydro-2H-pyran-4-yl)-5-ethyl-7-oxo-4,7-dihydro-[1,2,4]triazolo[1,5-a]pyrimidin-6-yl)piperazine-1-carbonyl)-4-hydroxyfuro[2,3-b]pyridine-5-carboxylate] | < 100 | 100 to 1000 |
| CCc1c(N2CCN(C(=O)c3nccn(C)c3=O)CC2)c(=O)n2nc(C3=CCOCC3)nc2n1CC(=O)Nc1ccc(C(F)(F)F)cc1Cl [Example 54, N-(2-Chloro-4-(trifluoromethyl)phenyl)-2-(2-(3,6-dihydro-2H-pyran-4-yl)-5-ethyl-6-(4-(4-methyl-3-oxo-3,4-dihydropyrazine-2-carbonyl)piperazin-1-yl)-7-oxo-[1,2,4]triazolo[1,5-a]pyrimidin-4(7H)-yl)acetamide] | 100 to 1000 | 100 to 1000 |
| CCc1c(N2CCN(C(=O)c3cnc4sccc4c3O)CC2)c(=O)n2nc(C3=CCOCC3)nc2n1CC(=O)Nc1ccc(C(F)(F)F)cc1Cl [Example 55, N-(2-Chloro-4-(trifluoromethyl)phenyl)-2-(2-(3,6-dihydro-2H-pyran-4-yl)-5-ethyl-6-(4-(4-hydroxythieno[2,3-b]pyridine-5-carbonyl)piperazin-1-yl)-7-oxo-[1,2,4]triazolo[1,5-a]pyrimidin-4(7H)-yl)acetamide] | < 100 | < 100 |
| CCc1c(N2CCN(C(=O)c3nnc(C)[nH]c3=O)CC2)c(=O)n2nc(C3=CCOCC3)nc2n1CC(=O)Nc1ccc(C(F)(F)F)cc1Cl [Example 56, N-(2-Chloro-4-(trifluoromethyl)phenyl)-2-(2-(3,6-dihydro-2H-pyran-4-yl)-5-ethyl-6-(4-(3-methyl-5-oxo-4,5-dihydro-1,2,4-triazine-6-carbonyl)piperazin-1-yl)-7-oxo-[1,2,4]triazolo[1,5-a]pyrimidin-4(7H)-yl)acetamide] | < 100 | < 100 |
| CCc1c(N2CCN(C(=O)c3cnc4[nH]cnc4c3O)CC2)c(=O)n2nc(C3=CCOCC3)nc2n1CC(=O)Nc1ccc(C(F)(F)F)cc1Cl [Example 57, N-(2-Chloro-4-(trifluoromethyl)phenyl)-2-(2-(3,6-dihydro-2H-pyran-4-yl)-5-ethyl-6-(4-(7-hydroxy-3H-imidazo[4,5-b]pyridine-6-carbonyl)piperazin-1-yl)-7-oxo-[1,2,4]triazolo[1,5-a]pyrimidin-4(7H)-yl)acetamide] | < 100 | < 100 |
